This note sets out measurements from the supplement of paper PMC10627819.

Each structure is given as a SMILES string.

What all share (test): Bliss interaction score (quartile over a dose matrix) (fitness difference); higher = more antagonism (negative = synergy)
Test [1] deals with B. subtilis 168. The gist of the method:
(§1)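 The Bliss score is observed minus expected fitness under the product model, reported as quartiles over technical, biological and donor/recipient replicates. Fitness is the OD595 at entry into stationary phase divided by the plate's robust no-drug mean and capped at 1. Single-drug fitness was inferred from combination data.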

In test [2] the test system is S. aureus DSM 20231. The gist of the method:
as §1

Test [3] has as its system S. aureus Newman. The gist of the method: as §1
Test [4] deals with S. pneumoniae D39V. The gist of the method: as §1
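Further: first quartile when negative (synergy) and third quartile when positive (antagonism).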

In the case of `CC[C@H](C)[C@H](N)C1=N[C@H](C(=O)N[C@@H](CC(C)C)C(=O)N[C@H](CCC(=O)O)C(=O)N[C@H](C(=O)N[C@H]2CCCCNC(=O)[C@H](CC(N)=O)NC(=O)[C@@H](CC(=O)O)NC(=O)[C@H](Cc3cnc[nH]3)NC(=O)[C@@H](Cc3ccccc3)NC(=O)[C@H]([C@@H](C)CC)NC(=O)[C@@H](CCCN)NC2=O)[C@@H](C)CC)CS1` [Bacitracin] + O=C1CN(/N=C/c2ccc([N+](=O)[O-])o2)C(=O)N1 [Nitrofurantoin], the Bliss interaction score in test [1] (main component drawn) was -0.192; in test [2] (main component drawn) it was -0.0336; in test [3] (main component drawn), 0.0654; in test [4] (main component drawn), -0.0709.
Regarding `CC[C@H](C)[C@H](N)C1=N[C@H](C(=O)N[C@@H](CC(C)C)C(=O)N[C@H](CCC(=O)O)C(=O)N[C@H](C(=O)N[C@H]2CCCCNC(=O)[C@H](CC(N)=O)NC(=O)[C@@H](CC(=O)O)NC(=O)[C@H](Cc3cnc[nH]3)NC(=O)[C@@H](Cc3ccccc3)NC(=O)[C@H]([C@@H](C)CC)NC(=O)[C@@H](CCCN)NC2=O)[C@@H](C)CC)CS1` [Bacitracin] + O=C(O)[C@H]1/C(=C/CO)O[C@@H]2CC(=O)N21 [Clavulanic], the Bliss interaction score is 0.107 in test [1] (main component drawn), -0.0375 in test [2] (main component drawn), 0.241 in test [3] (main component drawn) and -0.0867 in test [4] (main component drawn).
Consider `CC[C@H](C)[C@H](N)C1=N[C@H](C(=O)N[C@@H](CC(C)C)C(=O)N[C@H](CCC(=O)O)C(=O)N[C@H](C(=O)N[C@H]2CCCCNC(=O)[C@H](CC(N)=O)NC(=O)[C@@H](CC(=O)O)NC(=O)[C@H](Cc3cnc[nH]3)NC(=O)[C@@H](Cc3ccccc3)NC(=O)[C@H]([C@@H](C)CC)NC(=O)[C@@H](CCCN)NC2=O)[C@@H](C)CC)CS1` [Bacitracin] + Oc1cc(Cl)ccc1Oc1ccc(Cl)cc1Cl [Triclosan], for which the Bliss interaction score in test [1] (main component drawn) is -0.136; in test [2] (main component drawn), 0.0303; in test [3] (main component drawn) it was -0.0148; in test [4] (main component drawn), 0.056.
`CC[C@H]1OC(=O)[C@H](C)[C@@H](O[C@H]2C[C@@](C)(OC)[C@@H](O)[C@H](C)O2)[C@H](C)[C@@H](O[C@@H]2O[C@H](C)C[C@H](N(C)C)[C@H]2O)[C@](C)(O)C[C@@H](C)C(=O)[C@H](C)[C@@H](O)[C@]1(C)O` [Erythromycin] + C/C(=C\C(=O)OCCCCCCCCC(=O)O)C[C@@H]1OC[C@H](C[C@@H]2O[C@H]2[C@@H](C)[C@H](C)O)[C@@H](O)[C@H]1O [Pseudomonic acid]: the Bliss interaction score in test [1] is 0.0626; in test [2], -0.0124; in test [3], -0.0171; in test [4], 0.0664.
For the molecule `CC[C@H]1OC(=O)[C@H](C)[C@@H](O[C@H]2C[C@@](C)(OC)[C@@H](O)[C@H](C)O2)[C@H](C)[C@@H](O[C@@H]2O[C@H](C)C[C@H](N(C)C)[C@H]2O)[C@](C)(O)C[C@@H](C)C(=O)[C@H](C)[C@@H](O)[C@]1(C)O` [Erythromycin] + CC1(C)S[C@@H]2[C@H](NC(=O)Cc3ccccc3)C(=O)N2[C@H]1C(=O)O [PenicillinG], the Bliss interaction score was 0.0463 in test [1], 0.0265 in test [2], -0.0654 in test [3] and -0.0381 in test [4].
For the molecule `CC[C@H]1OC(=O)[C@H](C)[C@@H](O[C@H]2C[C@@](C)(OC)[C@@H](O)[C@H](C)O2)[C@H](C)[C@@H](O[C@@H]2O[C@H](C)C[C@H](N(C)C)[C@H]2O)[C@](C)(O)C[C@@H](C)C(=O)[C@H](C)[C@@H](O)[C@]1(C)O` [Erythromycin] + CC1=C\[C@@H](O)CC(=O)Cc2nc(co2)C(=O)N2CCC=C2C(=O)O[C@H](C(C)C)[C@H](C)/C=C/C(=O)NC\C=C\1 [Virginiamycin M1], the Bliss interaction score in test [1] was -0.0578; in test [2], 0.0769; in test [3], 0.066; in test [4] it was 0.0687.
As for `CC[C@H]1OC(=O)[C@H](C)[C@@H](O[C@H]2C[C@@](C)(OC)[C@@H](O)[C@H](C)O2)[C@H](C)[C@@H](O[C@@H]2O[C@H](C)C[C@H](N(C)C)[C@H]2O)[C@](C)(O)C[C@@H](C)C(=O)[C@H](C)[C@@H](O)[C@]1(C)O` [Erythromycin] + CC(=O)NC[C@H]1CN(c2ccc(N3CCOCC3)c(F)c2)C(=O)O1 [Linezolid], the Bliss interaction score is -0.0534 in test [1], -0.018 in test [2], -0.0521 in test [3] and 0.068 in test [4].
The corresponding values for `CC[C@H]1OC(=O)[C@H](C)[C@@H](O[C@H]2C[C@@](C)(OC)[C@@H](O)[C@H](C)O2)[C@H](C)[C@@H](O[C@@H]2O[C@H](C)C[C@H](N(C)C)[C@H]2O)[C@](C)(O)C[C@@H](C)C(=O)[C@H](C)[C@@H](O)[C@]1(C)O` [Erythromycin] + CC(=O)O[C@H]1C[C@@]2(C)[C@@H](C[C@@H](O)[C@H]3[C@@]4(C)CC[C@@H](O)[C@@H](C)[C@@H]4CC[C@@]32C)/C1=C(\CCC=C(C)C)C(=O)O [Fusidic acid] are -0.057, 0.0374, -0.0241 and -0.1.
`CC[C@H]1OC(=O)[C@H](C)[C@@H](O[C@H]2C[C@@](C)(OC)[C@@H](O)[C@H](C)O2)[C@H](C)[C@@H](O[C@@H]2O[C@H](C)C[C@H](N(C)C)[C@H]2O)[C@](C)(O)C[C@@H](C)C(=O)[C@H](C)[C@@H](O)[C@]1(C)O` [Erythromycin] + CC(C1CCC(C(O1)OC2C(CC(C(C2O)OC3C(C(C(CO3)(C)O)NC)O)N)N)N)NC [Gentamicin]: the Bliss interaction score in test [1] (main component drawn) stood at 0.118; in test [2] (main component drawn) it was 0.0847; in test [3] (main component drawn), 0.0427; in test [4] (main component drawn) it was 0.0656.
The like results for `CC[C@H]1OC(=O)[C@H](C)[C@@H](O[C@H]2C[C@@](C)(OC)[C@@H](O)[C@H](C)O2)[C@H](C)[C@@H](O[C@@H]2O[C@H](C)C[C@H](N(C)C)[C@H]2O)[C@](C)(O)C[C@@H](C)C(=O)[C@H](C)[C@@H](O)[C@]1(C)O` [Erythromycin] + CCC(C)C1C(=O)NC(=C)C(=O)NC(C(=O)NC(CSCC(C(=O)N1)NC(=O)/C(=C/C)/NC(=O)C(C(C)CC)N)C(=O)NC2C(SCC(NC(=O)CNC(=O)C3CCCN3C2=O)C(=O)NC(CCCCN)C(=O)NC4C(SCC(NC(=O)CNC(=O)C(NC(=O)C(NC(=O)C(NC(=O)CNC4=O)C)CC(C)C)CCSC)C(=O)NC(CC(=O)N)C(=O)NC(CCSC)C(=O)NC(CCCCN)C(=O)NC5C(SCC6C(=O)NC(C(=O)NC(CSC(C(C(=O)N6)NC(=O)C(NC5=O)C)C)C(=O)NC(CO)C(=O)NC(C(C)CC)C(=O)NC(CC7=CN=CN7)C(=O)NC(C(C)C)C(=O)NC(=C)C(=O)NC(CCCCN)C(=O)O)CC8=CN=CN8)C)C)C)CC(C)C [Nisin] were, in that order, 0.0295, -0.029, -0.028 and -0.0423.
Consider `CC[C@H]1OC(=O)[C@H](C)[C@@H](O[C@H]2C[C@@](C)(OC)[C@@H](O)[C@H](C)O2)[C@H](C)[C@@H](O[C@@H]2O[C@H](C)C[C@H](N(C)C)[C@H]2O)[C@](C)(O)C[C@@H](C)C(=O)[C@H](C)[C@@H](O)[C@]1(C)O` [Erythromycin] + CCCCCCCCCC(=O)N[C@@H]1[C@H]([C@@H]([C@H](O[C@H]1OC2=C3C=C4C=C2OC5=C(C=C(C=C5)[C@H]([C@H]6C(=O)N[C@@H](C7=C(C(=CC(=C7)O)OC8[C@H]([C@H]([C@@H]([C@H](O8)CO)O)O)O)C9=C(C=CC(=C9)[C@H](C(=O)N6)NC(=O)[C@@H]4NC(=O)[C@@H]1C2=CC(=CC(=C2)OC2=C(C=CC(=C2)[C@H](C(=O)N[C@H](CC2=CC(=C(O3)C=C2)Cl)C(=O)N1)N)O)O)O)C(=O)O)O[C@H]1[C@@H]([C@H]([C@@H]([C@H](O1)CO)O)O)NC(=O)C)Cl)CO)O)O [Teicoplanin], for which the Bliss interaction score in test [1] (main component drawn) was -0.046; in test [2] (main component drawn) it was 0.0621; in test [3] (main component drawn), 0.154; in test [4] (main component drawn) it was 0.0581.
On to `CC[C@H]1OC(=O)[C@H](C)[C@@H](O[C@H]2C[C@@](C)(OC)[C@@H](O)[C@H](C)O2)[C@H](C)[C@@H](O[C@@H]2O[C@H](C)C[C@H](N(C)C)[C@H]2O)[C@](C)(O)C[C@@H](C)C(=O)[C@H](C)[C@@H](O)[C@]1(C)O` [Erythromycin] + CCC[C@@H]1C[C@@H](C(=O)N[C@@H]([C@H]2O[C@H](SC)[C@H](O)[C@@H](O)[C@H]2O)[C@@H](C)O)N(C)C1 [Lincomycin], for which the Bliss interaction score is 0.107 in test [1], -0.0609 in test [2], -0.1 in test [3] and 0.0856 in test [4].
On to `CC[C@H]1OC(=O)[C@H](C)[C@@H](O[C@H]2C[C@@](C)(OC)[C@@H](O)[C@H](C)O2)[C@H](C)[C@@H](O[C@@H]2O[C@H](C)C[C@H](N(C)C)[C@H]2O)[C@](C)(O)C[C@@H](C)C(=O)[C@H](C)[C@@H](O)[C@]1(C)O` [Erythromycin] + CCN(CC)CCOC(=O)c1ccc(N)cc1 [Procaine], for which the Bliss interaction score in test [1] is -0.0671; in test [2], -0.0573; in test [3], 0.0663; in test [4] it was -0.048.
